Measurements reported in PubChem BioAssay AID220 (DTP/NCI, 2004).
Values joined by “and” are separate entries in the source; they are usually repeats but may differ in a detail not shown here. Equal entries are not always repeated. Inconclusive results are not listed.

System: CD8F1 mice, subcutaneous mammary adenocarcinoma, T/C%
Assay: NCI In Vivo Anticancer Drug Screen. Data for tumor model Mammary Adenocarcinoma CD8F1 (subcutaneous) in CD8F1
Details: higher = larger tumour
Summary of the method: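 Transplantable tumors were established in mice, animals were dosed with compound or vehicle, and survival or tumor size was then measured in both groups. The treated result was divided by the control result.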

[1] = endpoint: median tumor weight (est.), dose: 12.5 mg/kg/injection, schedule: Q07DX005 (ip), vehicle: saline
[2] = endpoint: median tumor weight (est.), dose: 25.0 mg/kg/injection, schedule: Q07DX005 (ip), vehicle: saline
[3] = endpoint: median tumor weight (est.), dose: 25.0 mg/kg/injection, schedule: Q07DX005 (ip), vehicle: suspension in saline
[4] = endpoint: median tumor weight (est.), dose: 50.0 mg/kg/injection, schedule: Q07DX005 (ip), vehicle: saline
[5] = endpoint: median tumor weight (est.), dose: 50.0 mg/kg/injection, schedule: Q07DX005 (ip), vehicle: suspension in saline
[6] = endpoint: median tumor weight (est.), dose: 100.0 mg/kg/injection, schedule: Q07DX005 (ip), vehicle: saline
[7] = endpoint: median tumor weight (est.), dose: 200.0 mg/kg/injection, schedule: Q07DX005 (ip), vehicle: saline
[8] = endpoint: median tumor weight (est.), dose: 100.0 mg/kg/injection, schedule: Q07DX005 (ip), vehicle: saline with Tween-80

In the case of `COc1cc(NCc2ccc3nc(N)nc(N)c3c2C)cc(OC)c1OC`, the T/C (endpoint: median tumor weight (est.), dose: 1.88 mg/kg/injection, schedule: Q07DX005 (ip), vehicle: sodium bicarbonate) was 82 % of control, the T/C (endpoint: median tumor weight (est.), dose: 3.75 mg/kg/injection, schedule: Q07DX005 (ip), vehicle: sodium bicarbonate) was 63 % of control and 82 % of control and the T/C (endpoint: median tumor weight (est.), dose: 7.5 mg/kg/injection, schedule: Q07DX005 (ip), vehicle: sodium bicarbonate) was 114 % of control. The T/C (endpoint: median tumor weight (est.), dose: 35.0 mg/kg/injection, schedule: Q04DX007 (ip), vehicle: water) was 100 % of control, the T/C (endpoint: median tumor weight (est.), dose: 35.0 mg/kg/injection, schedule: Q07DX005 (ip), vehicle: water) was 87 % of control and the T/C (endpoint: median tumor weight (est.), dose: 41.5 mg/kg/injection, schedule: Q04DX007 (ip), vehicle: water) was 59 % of control. The T/C (endpoint: median tumor weight (est.), dose: 44.0 mg/kg/injection, schedule: Q07DX005 (ip), vehicle: water) was 44 % of control, the T/C (endpoint: median tumor weight (est.), dose: 46.0 mg/kg/injection, schedule: Q07DX005 (ip), vehicle: water) was 26 % of control and the T/C (endpoint: median tumor weight (est.), dose: 47.4 mg/kg/injection, schedule: Q04DX007 (ip), vehicle: water) was 29 % of control. For the same compound, the T/C (endpoint: median tumor weight (est.), dose: 53.0 mg/kg/injection, schedule: Q04DX007 (ip), vehicle: water) was 66 % of control, the T/C (endpoint: median tumor weight (est.), dose: 53.0 mg/kg/injection, schedule: Q07DX005 (ip), vehicle: saline) was 5 % of control and the T/C (endpoint: median tumor weight (est.), dose: 53.0 mg/kg/injection, schedule: Q07DX005 (ip), vehicle: suspension in saline) was 67 % of control. The T/C (endpoint: median tumor weight (est.), dose: 62.2 mg/kg/injection, schedule: Q04DX007 (ip), vehicle: water) was 29 % of control, the T/C (endpoint: median tumor weight (est.), dose: 66.0 mg/kg/injection, schedule: Q07DX005 (ip), vehicle: water) was 111 % of control and the T/C (endpoint: median tumor weight (est.), dose: 70.0 mg/kg/injection, schedule: Q07DX005 (ip), vehicle: water) was 44 % of control. For the same compound, the T/C (endpoint: median tumor weight (est.), dose: 71.1 mg/kg/injection, schedule: Q04DX007 (ip), vehicle: water) was 45 % of control, the T/C (endpoint: median tumor weight (est.), dose: 80.0 mg/kg/injection, schedule: Q04DX007 (ip), vehicle: water) was 121 % of control and the T/C (endpoint: median tumor weight (est.), dose: 80.0 mg/kg/injection, schedule: Q07DX005 (ip), vehicle: suspension in saline) was 23 % of control. The T/C (endpoint: median tumor weight (est.), dose: 99.0 mg/kg/injection, schedule: Q07DX005 (ip), vehicle: water) was 24 % of control, the T/C (endpoint: median tumor weight (est.), dose: 105.0 mg/kg/injection, schedule: Q07DX005 (ip), vehicle: water) was 41 % of control and the T/C (endpoint: median tumor weight (est.), dose: 120.0 mg/kg/injection, schedule: Q04DX007 (ip), vehicle: water) was 8 % of control. For the same compound, the T/C (endpoint: median tumor weight (est.), dose: 120.0 mg/kg/injection, schedule: Q07DX005 (ip), vehicle: sodium bicarbonate) was 37 % of control.
In the case of `NC(=S)c1ncn(C2OC(CO)C(O)C2O)c1N` (centres undefined), the T/C [1] was 31 % of control, the T/C [2] was 48 % of control and the T/C [3] was 192 % of control. For the same compound, the T/C [4] was 39 % of control, the T/C [5] was 49 % of control and the T/C [6] was 31 % of control. For the same compound, the T/C (endpoint: median tumor weight (est.), dose: 100.0 mg/kg/injection, schedule: Q07DX005 (ip), vehicle: suspension in saline) was 45 % of control, the T/C [7] was 12 % of control and the T/C (endpoint: median tumor weight (est.), dose: 200.0 mg/kg/injection, schedule: Q07DX005 (ip), vehicle: suspension in saline) was 95 % of control. For the same compound, the T/C (endpoint: median tumor weight (est.), dose: 400.0 mg/kg/injection, schedule: Q07DX005 (ip), vehicle: saline) was 10 % of control and the T/C (endpoint: median tumor weight (est.), dose: 400.0 mg/kg/injection, schedule: Q07DX005 (ip), vehicle: suspension in saline) was 121 % of control.
In the case of `CCC12C[N+]3([O-])CCc4c([nH]c5ccccc45)C(C(=O)OC)(c4cc5c(cc4OC)N(C)C4C(O)(C(=O)OC)C(OC(C)=O)C6(CC)C=CCN7CCC54C76)CC(C3)C1O2` (centres undefined), the T/C (endpoint: median tumor weight change, dose: 6.25 mg/kg/injection, schedule: Q01DX001 (ip), vehicle: water) was 199 % of control, the T/C (endpoint: median tumor weight change, dose: 12.5 mg/kg/injection, schedule: Q01DX001 (ip), vehicle: water) was 73 % of control and the T/C (endpoint: median tumor weight change, dose: 25.0 mg/kg/injection, schedule: Q01DX001 (ip), vehicle: water) was 87 % of control. For the same compound, the T/C (endpoint: median tumor weight change, dose: 50.0 mg/kg/injection, schedule: Q01DX001 (ip), vehicle: water) was 92 % of control and the T/C (endpoint: median tumor weight change, dose: 100.0 mg/kg/injection, schedule: Q01DX001 (ip), vehicle: water) was 81 % of control.
With `O=c1nc(Oc2ccccc2)nc2ncccn12` the T/C (endpoint: median tumor weight (est.), dose: 6.25 mg/kg/injection, schedule: Q07DX005 (ip), vehicle: saline with Tween-80) was 88 % of control, the T/C (endpoint: median tumor weight (est.), dose: 12.5 mg/kg/injection, schedule: Q07DX005 (ip), vehicle: saline with Tween-80) was 110 % of control and the T/C (endpoint: median tumor weight (est.), dose: 25.0 mg/kg/injection, schedule: Q07DX005 (ip), vehicle: saline with Tween-80) was 100 % of control. The T/C (endpoint: median tumor weight (est.), dose: 50.0 mg/kg/injection, schedule: Q07DX005 (ip), vehicle: saline with Tween-80) was 91 % of control and the T/C [8] was 114 % of control.
With `COc1ccc2c(NCCCCCCNc3c4ccccc4nc4cc(OC)ccc34)c3ccccc3nc2c1` the T/C (endpoint: median tumor weight (est.), dose: 1.25 mg/kg/injection, schedule: Q07DX005 (ip), vehicle: lactic acid) was 77 % of control, the T/C (endpoint: median tumor weight (est.), dose: 2.5 mg/kg/injection, schedule: Q07DX005 (ip), vehicle: lactic acid) was 175 % of control and the T/C (endpoint: median tumor weight (est.), dose: 5.0 mg/kg/injection, schedule: Q07DX005 (ip), vehicle: lactic acid) was 52 % of control.
`[I][Hg][CH2]C1COC([CH2][Hg][I])CO1` (centres undefined) was tested, and the T/C (endpoint: median tumor weight (est.), dose: 6.25 mg/kg/injection, schedule: Q07DX005 (ip), vehicle: suspension in saline) was 103 % of control, the T/C (endpoint: median tumor weight (est.), dose: 12.5 mg/kg/injection, schedule: Q07DX005 (ip), vehicle: suspension in saline) was 167 % of control and the T/C [3] was 227 % of control. For the same compound, the T/C [5] was 27 % of control.
With `COC1CC(C)C(OC)C2=CC(=O)C=C(NC(=O)/C(C)=C/C=C\C(C)C(OC(N)=O)/C(C)=C\C(C)C1OC)C2=O` (centres undefined) the T/C (endpoint: median tumor weight change, dose: 6.25 mg/kg/injection, schedule: Q01DX001 (ip), vehicle: saline + alcohol) was 152 % of control, the T/C (endpoint: median tumor weight change, dose: 12.5 mg/kg/injection, schedule: Q01DX001 (ip), vehicle: saline + alcohol) was 91 % of control and the T/C (endpoint: median tumor weight change, dose: 25.0 mg/kg/injection, schedule: Q01DX001 (ip), vehicle: saline + alcohol) was 72 % of control.
In the case of `N#Cc1cn(C2OC(CO)C(O)C2O)c2ncnc(N)c12` (centres undefined), the T/C (endpoint: median tumor weight (est.), dose: 0.12 mg/kg/injection, schedule: Q07DX005 (ip), vehicle: saline) was 86 % of control, the T/C (endpoint: median tumor weight (est.), dose: 0.25 mg/kg/injection, schedule: Q07DX005 (ip), vehicle: saline) was 53 % of control and the T/C (endpoint: median tumor weight (est.), dose: 0.5 mg/kg/injection, schedule: Q07DX005 (ip), vehicle: saline) was 55 % of control. The T/C (endpoint: median tumor weight (est.), dose: 1.0 mg/kg/injection, schedule: Q07DX005 (ip), vehicle: saline) was 63 % of control.
In the case of `N=[N+]=CC(=O)OCC(N)C(=O)O` (centres undefined), the T/C (endpoint: median tumor weight (est.), dose: 6.25 mg/kg/injection, schedule: Q07DX005 (ip), vehicle: clinical formulation) was 76 % of control, the T/C (endpoint: median tumor weight (est.), dose: 6.25 mg/kg/injection, schedule: Q07DX005 (ip), vehicle: water) was 58 % of control and 79 % of control and the T/C (endpoint: median tumor weight (est.), dose: 12.5 mg/kg/injection, schedule: Q07DX005 (ip), vehicle: clinical formulation) was 71 % of control. For the same compound, the T/C (endpoint: median tumor weight (est.), dose: 25.0 mg/kg/injection, schedule: Q07DX005 (ip), vehicle: clinical formulation) was 32 % of control, the T/C (endpoint: median tumor weight (est.), dose: 50.0 mg/kg/injection, schedule: Q07DX005 (ip), vehicle: clinical formulation) was 29 % of control and the T/C (endpoint: median tumor weight (est.), dose: 50.0 mg/kg/injection, schedule: Q07DX005 (ip), vehicle: water) was 65 % of control.
For `[Cl][Pt+2][Cl].[NH-]C1CCC1.[NH2-]`, the T/C (endpoint: median tumor weight change, dose: 6.25 mg/kg/injection, schedule: Q01DX001 (ip), vehicle: suspension in saline) was 96 % of control and the T/C (endpoint: median tumor weight change, dose: 12.5 mg/kg/injection, schedule: Q01DX001 (ip), vehicle: suspension in saline) was 99 % of control.
With `COc1cc2cc3cc4cc(OC)c(OC)cc4c(C)[n+]3cc2cc1OC` (tested in a mixture with another compound) the T/C [1] was 68 % of control, the T/C [2] was 88 % of control and the T/C [4] was 82 % of control. For the same compound, the T/C [6] was 90 % of control and the T/C [7] was 39 % of control.
With `Cc1cc(NS(=O)(=O)c2ccc(N=Nc3cc(N=Nc4ccc(S(=O)(=O)Nc5cc(C)nc(C)n5)cc4)c4c(NC(=O)C(Cl)Cl)cccc4c3OC(=O)C(Cl)Cl)cc2)nc(C)n1` (tested in a mixture with another compound) the T/C (endpoint: median tumor weight change, dose: 250.0 mg/kg/injection, schedule: Q01DX001 (ip), vehicle: suspension in saline) was 167 % of control and the T/C (endpoint: median tumor weight change, dose: 500.0 mg/kg/injection, schedule: Q01DX001 (ip), vehicle: suspension in saline) was 65 % of control.
With `Cn1ccc(=Nc2ccc(NC(=O)c3ccc(N=c4ccn(C)c5ccc([N+](=O)[O-])cc45)cc3[N+](=O)[O-])cc2)cc1` the T/C [8] was 48 % of control and the T/C (endpoint: median tumor weight (est.), dose: 200.0 mg/kg/injection, schedule: Q07DX005 (ip), vehicle: saline with Tween-80) was 124 % of control.
